Assay results as given in publication PMC6458850, “CXXC5 mediates growth plate senescence and is a target for enhancement of longitudinal bone growth” (Life Science Alliance, 2019).

Tests used:
HEK293-TOP cells = test: TOPFlash Wnt reporter assay; format: cell-based; settings: 18 h
Procedure: Figure 4. Identification of functional properties of KY19382 in activating the Wnt/β-catenin pathway. (A) Chemical structure of KY19382. (B) In vitro binding assay to analyze the effect of KY19382 on CXXC5–DVL interaction (mean ± SEM, n = 3). The IC50 value was determined from the dose–response curve. (C) In vitro kinase assay to analyze the effect of KY19382 on kinase activity of GSK3β (mean ± SEM, n = 3). The IC50 value was determined from the dose–response curve. (D) Analyses of TOPFlash activity in HEK293 reporter cells grown with the indicated concentrations of KY19382 for 18 h (mean ± SEM, n = 4; t test, **P < 0.005 and ***P < 0.0005 versus DMSO-treated control). (E) Immunoblot analyses with the indicated antibodies in ATDC5 cells treated with I3O or KY19382 for 24 h. (F) Immunoblot analyses of whole cell lysates immunoprecipitated with anti-Myc in ATDC5 cells treated with 0.1 μM KY19382 for 4 h after transfection with pCMV-FLAG-DVL1 and pcDNA3.1-CXXC5-Myc. (G) Immunocytochemical staining (left) and quantitative analyses (mean ± SEM, n = 3; t test, **P < 0.005) (right) for β-catenin in ATDC5 cells treated with 0.1 μM KY19382 for 48 h. Scale bar, 100 μm.
HEK293-TOP cells were seeded into each well of a 24-well plate. The cells were treated with individual compounds at indicated concentration and cultured for 18 h. […]

ATDC5 cells = test: Chondrocyte proliferation, differentiation and Wnt/β-catenin signaling in ATDC5 cells; format: cell-based, mouse
Procedure: Figure S7. The effects of KY19382 on chondrocyte proliferation and differentiation. (A) ATDC5 cells treated with 0.01 or 0.1 μM concentrations of KY19382 were incubated for 48 h followed by treatment with 50 μM BrdU for 12 h before harvesting. BrdU incorporation was visualized by immunofluorescent staining using a specific BrdU antibody (left). BrdU-positive cells were quantified (mean ± SEM, n = 3; ANOVA, P = 7.8 × 10^−5; Tukey’s post-hoc test, *P < 0.05 and ***P < 0.0005) (right). Scale bar, 100 μm. (B) qRT-PCR analyses of mRNA levels of chondrogenic differentiation markers in ATDC5 cells incubated with 0.1 μM KY19382 for 3 d in three-dimensional alginate beads after transfection with control siRNA or Ctnnb1 siRNA (mean ± SEM, n = 3; t test, *P < 0.05, **P < 0.005, and ***P < 0.0005). (C) qRT-PCR analyses of mRNA levels of chondrogenic differentiation markers in C28/I2 cells incubated with 1 μM KY19382 for 3 d in three-dimensional alginate beads (mean ± SEM, n = 3; t test, *P < 0.05 and ***P < 0.0005). n.s., no significance.
Figure S8. qRT-PCR analyses for target-specificity of KY19382. qRT-PCR analyses of mRNA levels of pathway-specific target genes in ATDC5 cells treated with 0.01 or 0.1 μM concentrations of KY19382 for 4 h (mean ± SEM, n = 3; ANOVA and Tukey’s post-hoc test, *P < 0.05 and **P < 0.005 versus DMSO-treated control). n.s., no significance versus DMSO-treated control.
The mouse chondrogenic cell line, ATDC5, was obtained from the RIKEN Cell Bank. The human juvenile costal chondrocyte cell line, C28/I2, was provided by Dr. W U Kim (Catholic University, Korea). HEK293-TOP cells (HEK293 cells containing the chromosomally incorporated TOPFlash gene) were provided by Dr. S Oh (Kuk Min University, Korea). ATDC5 cells were maintained in DMEM/F12 (1:1) (Gibco) supplemented with 5% FBS (Gibco). To induce hypertrophic differentiation, ATDC5 cells were incubated with insulin–transferrin–sodium selenite supplement (Gibco) in three-dimensional alginate beads for 3 d, as described previously ([Kawasaki et al, 2008]). C28/I2 and HEK293-TOP cells were maintained in DMEM (Gibco) containing 10% FBS. All chemicals were dissolved in dimethyl sulfoxide (DMSO; Sigma-Aldrich) for the in vitro studies. For E2 (17β-estradiol; Sigma-Aldrich) treatment, the cells were cultured in phenol red–free DMEM/F12 with 5% charcoal-stripped FBS for 24 h followed by serum-free medium for 24 h before the experiment. The PTD-DBMP was synthesized by Peptide 2.0 Inc.
ATDC5 or C28/I2 cells were seeded on glass coverslip in 12-well culture plates. The cells were washed with PBS and fixed with 4% PFA at room temperature for 15 min. After permeabilization with 0.1% Triton X-100 for 15 min and blocking with 5% BSA for 1 h, the cells were incubated with primary antibodies specific for β-catenin (1:100) or CXXC5 (1:200) at 4°C overnight. The cells were washed in PBS and incubated with Alexa Fluor 488 or Alexa Fluor 555 secondary antibodies (1:200) at room temperature for 1 h. Cell nuclei were counterstained with DAPI for 10 min and the stained samples were examined under an LSM700 META microscope using 405-, 488-, or 543-nm excitation wavelengths. For BrdU assay, the cultured cells were incubated with BrdU solution (25 μM) overnight, followed by immunocytochemical staining with antibody against BrdU (1:100).
Immunoprecipitation was performed as previously described ([Kim et al, 2015]). To monitor the protein–protein interactions, 1 mg of WCLs were incubated with anti-DVL1 and protein G agarose beads (GenDEPOT) or anti-Myc and protein A agarose beads (GenDEPOT) at 4°C for 16 h, and the beads were then washed three times in RIPA buffer. The resulting immune complexes were resolved by SDS–PAGE, and immunoblotting was performed with the indicated antibodies.
Total RNA was extracted using Trizol reagent (Invitrogen) according to the manufacturer’s instructions. […]

[1] = ATDC5 cells, 0.01 or 0.1 μM, 4 h

For `CON=C1C(=C2C(=O)Nc3cc(Cl)c(Cl)cc32)Nc2ccccc21` [KY19382, 5,6-dichloroindirubin-3′-methoxime], the “TOPFlash Wnt reporter activity” value (HEK293-TOP cells) was “strong enhancement”, the “BrdU-positive ATDC5 cells” value (ATDC5 cells; 0.01 or 0.1 μM, 48 h) was “enhanced number” and the “CXXC5–DVL interaction (immunoprecipitation)” value (ATDC5 cells; ATDC5 cells transfected with FLAG-DVL1 and CXXC5-Myc, 0.1 μM, 4 h) was “interruption”. For the same compound, the “nuclear translocation of β-catenin” value (ATDC5 cells; ATDC5 cells, 0.1 μM, 48 h) was “elevated nuclear translocation”, the “mRNA levels of chondrogenic markers” value (ATDC5 cells; ATDC5 cells, 0.1 μM, 3 d, alginate beads) was “up-regulated” and the “expression levels of Wnt/β-catenin target genes (Wisp1, Axin2)” value (ATDC5 cells; [1]) was “markedly increased”. The “expression of 19 other genes that respond to other pathways (off-target effects)” value (ATDC5 cells; [1]) was “not significantly altered” and the “concentration sufficient to promote activation of Wnt/β-catenin pathway in vitro” value (ATDC5 cells; Fig 4E and Fig S8) was 0.01 µM.
